Laboratory results as given in patent publication US8148097B2, “Screening method for identification of compounds with calcium-independent phospholipase A2β (iPLA2β) modulating activity” (Washington University, priority 2005, dated 2012).

Target: T1, iPLA2β (Cricetulus griseus, UniProt A0A3L7I2I8)
T1 construct: (His)6; made in house; host or cells: Sf9 insect cells (baculovirus)
T1 sequence (A0A3L7I2I8 1-752 isoform A0A3L7I2I8-2): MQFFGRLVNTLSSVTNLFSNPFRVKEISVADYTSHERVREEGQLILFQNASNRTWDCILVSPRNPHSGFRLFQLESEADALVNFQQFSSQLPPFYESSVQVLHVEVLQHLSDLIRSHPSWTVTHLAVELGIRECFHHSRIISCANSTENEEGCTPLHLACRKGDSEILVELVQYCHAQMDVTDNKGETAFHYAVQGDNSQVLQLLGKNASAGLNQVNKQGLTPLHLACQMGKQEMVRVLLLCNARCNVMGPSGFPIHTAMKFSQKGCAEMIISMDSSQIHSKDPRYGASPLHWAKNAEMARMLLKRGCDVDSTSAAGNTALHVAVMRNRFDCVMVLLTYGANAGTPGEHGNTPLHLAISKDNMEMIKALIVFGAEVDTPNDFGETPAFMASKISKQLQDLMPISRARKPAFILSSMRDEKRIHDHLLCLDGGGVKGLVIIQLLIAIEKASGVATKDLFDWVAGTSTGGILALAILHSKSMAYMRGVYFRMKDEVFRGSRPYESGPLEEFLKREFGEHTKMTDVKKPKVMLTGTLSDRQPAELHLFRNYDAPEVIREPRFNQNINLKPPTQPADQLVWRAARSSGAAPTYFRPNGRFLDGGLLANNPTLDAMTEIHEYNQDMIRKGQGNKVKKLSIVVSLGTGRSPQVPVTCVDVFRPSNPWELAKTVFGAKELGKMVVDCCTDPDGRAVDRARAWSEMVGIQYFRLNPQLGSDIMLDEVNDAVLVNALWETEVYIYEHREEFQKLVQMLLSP
Experiment: Covalent acylation (autoacylation) of iPLA2β with [14C]-long chain acyl-CoAs
Format: biochemical
Procedure: FIG. 5—Equivalent amounts of the indicated [1-^14C]-acyl-CoA guests (5 mol %) were incorporated into host POPC (100 μM) vesicles and incubated for 1 hr at 37° C. with equal amounts of either wild-type (WT) iPLA2β(His)6 (peptide disclosed as SEQ ID NO: 4), S465A iPLA2β(His)6 (peptide disclosed as SEQ ID NO: 4), or BEL-pretreated WT iPLA2β(His)6 (peptide disclosed as SEQ ID NO: 4) enzyme as described in Experimental Procedures. Samples were resolved by SDS-PAGE (10% gel), fixed, and dried before visualization by autoradiography.
FIG. 6—Purified iPLA2β(His)6 (peptide disclosed as SEQ ID NO: 4) (2 μM) was incubated with the indicated concentrations of [1-^14C]-oleoyl-CoA present as guest in host POPC (100 μM) vesicles for 1 hr at 37° C. Samples were electrophoresed in parallel with standard amounts (0.5-10 nCi) of [^14C]-BSA of known activity (not shown). The fixed and dried gel was exposed to film and the resultant signals from the [^14C]-BSA were utilized to generate a standard curve utilizing ID software from a Kodak Imagestation to determine the incorporation of [1-^14C]-oleate into iPLA2β.
FIG. 7—Purified iPLA2β(His)6 (peptide disclosed as SEQ ID NO: 4) was incubated with [1-^14C]-oleoyl CoA (10 mol %) incorporated as guest in host POPC vesicles. N-ethylmaleimide and iodoacetamide samples were pretreated with 5 mM of either reagent for 5 min at 30° C. before addition of [1-^14C]-oleoyl-CoA. Samples were incubated with 1 N HCl, 1 N NaOH, or 2 N neutral hydroxylamine for 1 hr at 30° C. as indicated. All samples, except lane 1, were precipitated with CHCl3/MeOH and washed with 70% acetone before SDS-PAGE and autoradiography as described in Experimental Procedures.
FIG. 10—Purified iPLA2β(His)6 (peptide disclosed as SEQ ID NO: 4) was incubated with [1-^14C]-oleoyl CoA (10 mol %) incorporated as guest in host POPC vesicles in the presence of EGTA (5 mM), Ca^2+ (1 mM), CaM (3 μg), or Ca^2+-CaM for 1 h at 37° C. Samples were resolved by SDS-PAGE and the gel was soaked in Amplify fluorographic reagent, dried, and exposed to film as described in Experimental Procedures.
Covalent Modification of […] with [^14C]-long chain Acyl CoAs—Purified recombinant iPLA2β(His)6 (peptide disclosed as SEQ ID NO: 4) was incubated with POPC vesicles containing 10 mol % [1-^14C]-acyl-CoA for 1 h at 37° C. […] Chloroform/methanol precipitation of some samples was performed as described (66) utilizing 15 μg of bovine serum albumin as carrier. In tests to examine the nature of the covalent linkage between oleic acid and iPLA2β, acid (HCl), base (NaOH), and hydroxylamine were added to the indicated concentrations and the samples were incubated at 30° C. for 1 h. Bovine serum albumin (15 μg) and SDS-PAGE loading buffer were then added to each sample prior to dialysis against 50 mM Tris-HCl, pH 6.8 containing 10% glycerol and 1% SDS for 4 h. Samples were electrophoresed by SDS-PAGE, fixed (40% methanol containing 10% acetic acid), stained with Coomassie Blue R-250, incubated in Amplify fluorographic reagent, dried, and exposed to Kodak Biomax MR film for 2-5 days at −80° C.

CCCCCCCC/C=C\CCCCCCCC(=O)SCCNC(=O)CCNC(=O)[C@H](O)C(C)(C)COP(=O)(O)OP(=O)(O)OC[C@H]1O[C@@H](n2cnc3c(N)ncnc32)[C@H](O)[C@@H]1OP(=O)(O)O [oleoyl-CoA]
[1-14C]-oleic acid incorporated per mole of iPLA2β (POPC vesicles, up to 5-fold molar excess of oleoyl-CoA, FIG. 6): approximately 1 mole
radiolabeling of iPLA2β, fold greater than saturated counterparts (wild-type iPLA2β, FIG. 5): 10-100 fold
